Assay results reported in patent publication EP0646375A1, “Method of regulating blood amino acid levels” (CLINTEC NUTRITION COMPANY, priority 1993, dated 1995).
Residues, ends and D or L forms follow the SMILES beside them.

How the values were obtained:
[1] = rat, in vivo
Method: (§1) Experiments were performed on mature male Sprague Dawley rats (see Table II for weights). Prior to the experiments the animals were maintained on standard rat chow (Doust and Rabbidge, Sydney, Australia) and tap water. The animals were starved for 15-18h and then anaesthetized by peritoneal injection with Nembutal (Boehringer Ingelheim, Sydney, Australia) (4mg/kg Body Weight (B.W.) pentobarbitone). The internal jugular veins were exposed by blunt dissection and a small gauge silicone catheter (Dow Corning, Sydney, Australia) was introduced and secured with 5-0 silk sutures. Both internal jugular veins were catheterized; the left for dipeptide injection and the right for blood sampling. After insertion, the catheters were kept patent and with occasional flushes (0.2-0.5ml) of heparinized (10U/ml) isotonic saline.
(§2) All dipeptides were proven by to be >98% pure. […] Dipeptides were dissolved in 80mM sodium phosphate buffer, Ph 7.0, made isotonic with sodium chloride and filtered through a 0.2µm membrane filter (Millipore, Sydney, Australia).
(§3) Following an initial baseline blood sample (0.15-0.2ml) a bolus injection of dipeptide (0.2ml, see Table 1 for doses) was administered into the left catheter. Rapid blood samples were taken in the first 5 minutes and then at 10, 20 and 30 minutes following injection. Heparinized (10U/ml) isotonic saline (0.5ml) was injected into the sample catheter after the 5, 10 and 20 minute blood samples to maintain patency of the catheter. At each time point two blood samples were taken: the first, 0.1ml in volume, to remove traces of heparinized saline and blood from the catheter and the second, 0.15-ml in volume, for dipeptide and amino acid determination. One hour after injection of the dipeptide the bladder was exposed and urine was collected with a small gauge hypodermic needle.
(§4) Immediately following collection the blood (0.15-ml) and urine (0.5ml) samples were transferred to pre-weighed stoppered tubes containing 0.6ml of ice-cold 4% (w/v) sulfosalicylic acid. The samples were shaken vigorously and placed on ice for 10 minutes to allow complete deproteinization. The sample tubes were weighed and then centrifuged (bench-top, 1200 x g) for 10 minutes at 2-4°C. The resulting supernatant was filtered (0.45µm membrane, Millipore, Sydney, Australia) and stored at - 80°C. The volume of blood added to the tubes was determined by weight assuming a blood density of 1.06g/ml.
(§5) The concentration of dipeptides and amino acids in the deproteinized samples was determined using a HPLC modification of the standard ion-exchange chromatography, post-column ninhydrin method for physiological amino acids. The column temperature was modified for each dipeptide to produce complete separation of dipeptides and amino acids. The column temperatures were: 70°C for AlaGln, GlyTyr and GlnGly, 60°C for GlyGln, 55°C for GlnAla, and 45°C for AlaTyr.
(§6) Kinetic parameters were calculated for the disappearance of dipeptides, and the amino acids released from the dipeptides using standard equations. In calculating the amino acid clearance the dose was assumed to be that administered as the dipeptide. Baseline amino acid concentrations were subtracted from the amino acid concentrations measured following dipeptide injection to obtain the AUC for amino acids released from the dipeptides. AUC for dipeptides and the constituent amino acids was calculated using the trapezoidal method with extrapolation to infinite time.
(§7) Blood clearance was calculated by dividing the dose of dipeptide by the area under the blood concentration-versus-time curve (AUC). Elimination half-lifes (t½) were estimated from the relationship: t½ = ln2/β, where β is the rate constant for the terminal elimination phase. β was obtained by fitting the concentration-versus-time-curves to a two-compartment model by non-linear least squares regression.

[2] = in vivo; conditions: male, Sprague Dawley, rat, iv
Method: as §1, §2, §3, §4, §5, §6, §7

| mean Vβ of the dipeptide [1] [L/kg] | clearance [2] [L/h/kg] | mean clearance of glutamine, times greater than glutamine from GlnGly or AlaGln [1] [times] | mean t½ of glutamine, times shorter than glutamine from GlnGly or AlaGln [1] [times] | CLEARANCE OF: Dipeptide ([1]; iv) [L/h/kg] | SMILES |
| --- | --- | --- | --- | --- | --- |
| 0.06 to 0.07 | 11.2 |  |  |  | C[C@H](NC(=O)[C@@H](N)Cc1ccc(O)cc1)C(=O)O [TYR-ALA] |
| 0.06 to 0.07 | 2.58 |  |  |  | NCC(=O)N[C@@H](CCC(N)=O)C(=O)O [GLY-GLN] (H-Gly-Gln-OH) |
| 0.06 to 0.07 | 6.06 |  |  |  | NCC(=O)N[C@@H](Cc1ccc(O)cc1)C(=O)O [GLY-TYR] (H-Gly-Tyr-OH) |

Second part, the compound before the results:

| SMILES | mean Vβ of the dipeptide [1] [L/kg] | clearance [2] [L/h/kg] | mean clearance of glutamine, times greater than glutamine from GlnGly or AlaGln [1] [times] | mean t½ of glutamine, times shorter than glutamine from GlnGly or AlaGln [1] [times] | CLEARANCE OF: Dipeptide ([1]; iv) [L/h/kg] |
| --- | --- | --- | --- | --- | --- |
| NC(=O)CC[C@H](N)C(=O)NCC(=O)O [GLN-GLY] (H-Gln-Gly-OH) |  | 9.06 |  |  |  |
| C[C@H](N)C(=O)N[C@@H](CCC(N)=O)C(=O)O [ALA-GLN] (H-Ala-Gln-OH) |  | 7.32 |  |  |  |
| C[C@H](NC(=O)[C@@H](N)CCC(N)=O)C(=O)O [GLN-ALA] (H-Gln-Ala-OH) | 0.06 to 0.07 |  | 4 | 3 | 16.7 |
| C[C@H](N)C(=O)N[C@@H](Cc1ccc(O)cc1)C(=O)O [ALA-TYR] (H-Ala-Tyr-OH) |  | 9.3 |  |  |  |
